Data published in patent US20110077248A1, “IMIDAZOPYRIDINE AND RELATED ANALOGS AS SIRTUIN MODULATORS” (Sirtris Pharmaceuticals, Inc., priority 2008, published 2011).

Molecular target: T1, SIRT1 (Homo sapiens, UniProt Q96EB6)
T1 construct: His-tag (N); made in house; host or cells: E. coli BL21(DE3), T7-promoter vector
T1 sequence (Q96EB6 1-747): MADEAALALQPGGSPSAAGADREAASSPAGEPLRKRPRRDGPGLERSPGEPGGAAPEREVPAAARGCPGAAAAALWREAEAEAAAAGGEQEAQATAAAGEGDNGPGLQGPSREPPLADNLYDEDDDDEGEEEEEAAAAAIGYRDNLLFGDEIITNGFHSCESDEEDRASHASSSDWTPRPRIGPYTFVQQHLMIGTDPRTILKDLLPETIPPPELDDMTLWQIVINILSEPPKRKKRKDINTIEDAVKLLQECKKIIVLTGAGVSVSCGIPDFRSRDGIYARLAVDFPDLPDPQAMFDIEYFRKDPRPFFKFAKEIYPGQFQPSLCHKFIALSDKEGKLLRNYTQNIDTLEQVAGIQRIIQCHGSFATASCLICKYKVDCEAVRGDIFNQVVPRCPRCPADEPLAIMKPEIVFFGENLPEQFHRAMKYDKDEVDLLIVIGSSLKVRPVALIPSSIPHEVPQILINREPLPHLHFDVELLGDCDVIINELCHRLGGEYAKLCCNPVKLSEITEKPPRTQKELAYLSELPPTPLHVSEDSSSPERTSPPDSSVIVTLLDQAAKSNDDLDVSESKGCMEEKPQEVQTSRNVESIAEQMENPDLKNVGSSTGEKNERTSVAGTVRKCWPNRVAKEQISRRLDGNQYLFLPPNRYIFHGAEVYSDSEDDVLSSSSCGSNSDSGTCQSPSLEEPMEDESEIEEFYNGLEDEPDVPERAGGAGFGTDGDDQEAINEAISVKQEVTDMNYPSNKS
Test: Mass spectrometry based assay for modulators of SIRT1 activity (deacetylation of p53-based acetylated peptide)
Format: biochemical
Conditions: for EC1.5: concentration of test compound that results in 150% activation of SIRT1, 0.5 μM peptide substrate, 120 μM βNAD+, 10 nM SIRT1, 25 min, 25° C.; for Emax: percent maximum fold activation of SIRT1
Source text: A mass spectrometry based assay was used to identify modulators of SIRT1 activity. The mass spectrometry based assay utilizes a peptide having 20 amino acid residues as follows: Ac-EE-K(biotin)-GQSTSSHSK(Ac)NleSTEG-K(5TMRi)-EE-NH2 (SEQ ID NO: 1) wherein K(Ac) is an acetylated lysine residue and Nle is a norleucine. The peptide is labeled with the fluorophore 5TMR (excitation 540 nm/emission 580 nm) at the C-terminus. The sequence of the peptide substrate is based on p53 with several modifications. In addition, the methionine residue naturally present in the sequence was replaced with the norleucine because the methionine may be susceptible to oxidation during synthesis and purification.
The mass spectrometry assay is conducted as follows: 0.5 μM peptide substrate and 120 μM βNAD+ is incubated with 10 nM SIRT1 for 25 minutes at 25° C. in a reaction buffer (50 mM Tris-acetate pH 8, 137 mM NaCl, 2.7 mM KCl, 1 mM MgCl2, 5 mM DTT, 0.05% BSA). Test compounds may be added to the reaction as described above. The SirT1 gene is cloned into a T7-promoter containing vector and transformed into BL21(DE3). After the 25 minute incubation with SIRT1, 10 μL of 10% formic acid is added to stop the reaction. Reactions are sealed and frozen for later mass spec analysis. Determination of the mass of the substrate peptide allows for precise determination of the degree of acetylation (i.e. starting material) as compared to deacetylated peptide (product).
A control for inhibition of sirtuin activity is conducted by adding 1 μL of 500 mM nicotinamide as a negative control at the start of the reaction (e.g., permits determination of maximum sirtuin inhibition). A control for activation of sirtuin activity is conducted using 10 nM of sirtuin protein, with 1 μL of DMSO in place of compound, to determinine the amount of deacetylation of the substrate at a given timepoint within the linear range of the assay. This timepoint is the same as that used for test compounds and, within the linear range, the endpoint represents a change in velocity.
For the above assay, SIRT1 protein was expressed and purified as follows. The SirT1 gene was cloned into a T7-promoter containing vector and transformed into BL21(DE3). The protein was expressed by induction with 1 mM IPTG as an N-terminal His-tag fusion protein at 18° C. overnight and harvested at 30,000×g. Cells were lysed with lysozyme in lysis buffer (50 mM Tris-HCl, 2 mM Tris[2-carboxyethyl]phosphine (TCEP), 10 μM ZnCl2, 200 mM NaCl) and further treated with sonication for 10 min for complete lysis. The protein was purified over a Ni-NTA column (Amersham) and fractions containing pure protein were pooled, concentrated and run over a sizing column (Sephadex S200 26/60 global). The peak containing soluble protein was collected and run on an Ion-exchange column (MonoQ). Gradient elution (200 mM-500 mM NaCl) yielded pure protein. This protein was concentrated and dialyzed against dialysis buffer (20 mM Tris-HCl, 2 mM TCEP) overnight. The protein was aliquoted and frozen at −80° C. until further use.
Sirtuin modulating compounds that activated SIRT1 were identified using the assay described above and are shown below in Table 1. The EC1.5 values represent the concentration of test compounds that result in 150% activation of SIRT1. The EC1.5 values for the activating compounds are represented by A (EC1.5<1.0 uM), B (EC1.5 1-25 uM), C (EC1.5>25 uM). The percent maximum fold activation is represented by A (Fold activation >200%) or B (Fold Activation <200%). “NT” indicates the compound was not tested in a particular assay.

Row | Structure (SMILES) | EC1.5 | Emax
1 | O=C(Nc1nccs1)c1cccn2cc(-c3ccc(C(F)F)cc3)nc12 [Compound 202, 2-(4-(difluoromethyl)phenyl)-N-(thiazol-2-yl)imidazo[1,2-a]pyridine-8-carboxamide] | C (EC1.5>25 uM) | < 200%
2 | O=C(Nc1cccc(CN2CCOCC2)n1)c1cccn2nc(-c3cccc(OC(F)(F)F)c3)nc12 [Compound 180] | B (EC1.5 1-25 uM) | > 200%
3 | Cc1ncccc1-c1nc2c(C(=O)Nc3cccc(CN4CCOCC4)n3)cccn2n1 [Compound 242] | B (EC1.5 1-25 uM) | > 200%
4 | O=C(Nc1nccs1)c1cccn2nc(-c3cc(N4CCOCC4)ccc3C(F)(F)F)nc12 [Compound 221, 2-(5-morpholino-2-(trifluoromethyl)phenyl)-N-(thiazol-2-yl)-[1,2,4]triazolo[1,5-a]pyridine-8-carboxamide] | A (EC1.5<1.0 uM) | > 200%
5 | Cc1cnc(NC(=O)c2nccn3cc(-c4ccccc4OC(F)(F)F)nc23)s1 [Compound 187] | B (EC1.5 1-25 uM) | > 200%
6 | Cc1ccc(-c2cn3ccnc(C(=O)Nc4ccccn4)c3n2)cn1 [Compound 163] | B (EC1.5 1-25 uM) | < 200%
7 | O=C(Nc1nc(CN2CCOCC2)cs1)c1cccn2cc(-c3ccc(F)c(Cl)c3)nc12 [Compound 235] | A (EC1.5<1.0 uM) | > 200%
8 | O=C(Nc1nc(CN2CCOCC2)cs1)c1cccn2cc(-c3cc(F)c(F)c(F)c3)nc12 [Compound 196] | B (EC1.5 1-25 uM) | < 200%
9 | O=C(Nc1nccs1)c1cccn2nc(-c3ccc(OCCN4CCOCC4)cc3C(F)F)nc12 [Compound 265, 2-(2-(difluoromethyl)-4-(2-morpholinoethoxy)phenyl)-N-(thiazol-2-yl)-[1,2,4]triazolo[1,5-a]pyridine-8-carboxamide] | B (EC1.5 1-25 uM) | < 200%
10 | O=C(Nc1cccc(CN2CCOCC2)n1)c1nccn2cc(-c3ccccc3C(F)(F)F)nc12 [Compound 259] | A (EC1.5<1.0 uM) | > 200%
11 | O=C(Nc1ccncn1)c1nccn2cc(-c3ccccc3C(F)(F)F)nc12 [Compound 175] | B (EC1.5 1-25 uM) | > 200%
12 | O=C(Nc1nccs1)c1cccn2cc(-c3ccc(CN4CCCC4)cc3)nc12 [Compound 252] | B (EC1.5 1-25 uM) | > 200%
13 | O=C(Nc1cccn2cc(-c3cccc(C(F)(F)F)c3)nc12)c1ncccn1 [Compound 122, N-(2-(3-(trifluoromethyl)phenyl)imidazo[1,2-a]pyridin-8-yl)pyrimidine-2-carboxamide] | B (EC1.5 1-25 uM) | > 200%
14 | O=C(Nc1nc(CN2CCOCC2)cs1)c1nccn2cc(-c3ccc(F)cc3C(F)(F)F)nc12 [Compound 260] | A (EC1.5<1.0 uM) | > 200%
15 | O=C(Nc1cccc(CN2CCOCC2)n1)c1cccn2cc(-c3ccc(F)cc3F)nc12 [Compound 199] | B (EC1.5 1-25 uM) | < 200%
16 | O=C(Nc1cccc(CN2CCOCC2)n1)c1cccn2cc(-c3cccc(OC(F)(F)F)c3)nc12 [Compound 161] | A (EC1.5<1.0 uM) | > 200%
17 | O=C(Nc1nccs1)c1cccn2cc(-c3ccccc3C(F)(F)F)nc12 [Compound 148] | C (EC1.5>25 uM) | < 200%
18 | Cc1ncccc1-c1nc2c(C(=O)Nc3nccs3)cccn2n1 [Compound 239, 2-(2-methylpyridin-3-yl)-N-(thiazol-2-yl)-[1,2,4]triazolo[1,5-a]pyridine-8-carboxamide] | C (EC1.5>25 uM) | < 200%

Row | Structure (SMILES) | EC1.5 | Emax
19 | O=C(Nc1cccn2cc(-c3cccc(C(F)(F)F)c3)nc12)c1cscn1 [Compound 117] | B (EC1.5 1-25 uM) | < 200%
20 | O=C(Nc1cccn2cc(-c3cccc(-c4ccccc4)c3)nc12)c1ncccn1 [Compound 125] | B (EC1.5 1-25 uM) | < 200%
21 | O=C(Nc1cccn2cc(-c3cccc(-c4ccccc4)c3)nc12)c1cnccn1 [Compound 123, N-(2-(biphenyl-3-yl)imidazo[1,2-a]pyridin-8-yl)pyrazine-2-carboxamide] | C (EC1.5>25 uM) | < 200%
22 | O=C(Nc1ccccc1)c1cccn2cc(-c3cccc(C(F)(F)F)c3)nc12 [Compound 113, N-phenyl-2-(3-(trifluoromethyl)phenyl)imidazo[1,2-a]pyridine-8-carboxamide] | C (EC1.5>25 uM) | < 200%
23 | O=C(Nc1nccs1)c1nccn2cc(-c3ccccc3C(F)(F)F)nc12 [Compound 171] | A (EC1.5<1.0 uM) | > 200%
24 | O=C(Nc1cccc(CN2CCOCC2)n1)c1cccn2cc(-c3cccc(C(F)F)c3)nc12 [Compound 209] | A (EC1.5<1.0 uM) | > 200%
25 | O=C(Nc1nccs1)c1cccn2cc(-c3cccc(CN4CCOCC4)c3)nc12 [Compound 254] | A (EC1.5<1.0 uM) | > 200%
26 | Cc1ncccc1-c1nc2c(C(=O)Nc3ccccn3)cccn2n1 [Compound 240] | C (EC1.5>25 uM) | < 200%
27 | O=C(Nc1ccccn1)c1cccn2cc(-c3ccc(C(F)(F)F)cc3)nc12 [Compound 151] | C (EC1.5>25 uM) | < 200%
28 | O=C(Nc1ccccn1)c1cccn2nc(-c3ccc(N4CCOCC4)cc3C(F)(F)F)nc12 [Compound 220] | A (EC1.5<1.0 uM) | > 200%
29 | O=C(Nc1cccn2cc(-c3ccccc3)nc12)c1cscn1 [Compound 101] | B (EC1.5 1-25 uM) | < 200%
30 | O=C(Nc1cnccn1)c1nccn2cc(-c3ccccc3OC(F)(F)F)nc12 [Compound 245] | A (EC1.5<1.0 uM) | > 200%
31 | O=C(Nc1nccs1)c1cccn2cc(-c3ccc(N4CCOCC4)cc3)nc12 [Compound 183] | C (EC1.5>25 uM) | < 200%
32 | O=C(Nc1ccccn1)c1cccn2cc(-c3ccc(C(F)F)cc3)nc12 [Compound 203] | C (EC1.5>25 uM) | < 200%
33 | O=C(Nc1ccccn1)c1cccn2cc(-c3ccc(N4CCCC4)cc3)nc12 [Compound 167] | C (EC1.5>25 uM) | < 200%
34 | O=C(Nc1nccs1)c1cccn2cc(-c3ccc(F)cc3)nc12 [Compound 156] | C (EC1.5>25 uM) | < 200%
35 | O=C(Nc1cccn2cc(-c3ccccc3)nc12)c1cccc(N2CCCC2)c1 [Compound 131] | C (EC1.5>25 uM) | < 200%
